{
  "source": "paper PMC11310889",
  "about": "“Ribosomal translation of fluorinated non-canonical amino acids for de novo biologically active fluorinated macrocyclic peptides” (Chemical Science, 2024)",
  "system": "E. coli W3110",
  "experiment": "Evaluation of R9-conjugated macrocyclic peptides against E. coli W3110 (survival, CFU)",
  "format": "cell-based, Escherichia coli",
  "conditions": "E. coli W3110 logarithmic-phase, 5 μM peptide, 15 min treatment (Fig. 4B)",
  "procedure": "the samples were centrifuged at 1000 rpm for 10 min，and take pictures of the pellet after centrifugation. Then, the supernatant from each sample was absorbed into the 96-well plate to ensure that there could be no air bubbles in each hole. The absorbance of the supernatant at the wavelength of 545 nm was measured by microplate reader, and the percentage of hemolysis of each […]\nPercentage of hemolysis = 100%OD-OD×\nEvaluation of R9-conjugated macrocyclic peptides against Gram-negative pathogens Remove the previously preserved E. coli W3110 cells from the -80 °C refrigerator, scrape a little, inoculate it into 1 mL LB liquid medium, and culture overnight in 37 °C shaker. The strain was inoculated into fresh LB liquid medium according to the inoculation ratio of 1:100 and incubated at 37 ℃ until the OD600 reached about 0.47~0.53. First, 100 μL E. coli W3110 cells was taken, then centrifuged for 2 minutes at 13000 rpm, then the supernatant was absorbed and discarded, and then the cells were resuspended with 100 μL PBS solution, followed by 13000 rpm centrifugation for two minutes. Various fluorinated macrocyclic peptides conjugated with R9 were dissolved in DMSO and then diluted to the required concentration. […] Finally, the plate was scanned and counted. […]",
  "data": [
    {"substance": "Ac-(4-F-DPhe)IWHKSLT(4-F-DPhe)NYLHTCGS(Acp)RRRRRRRRR-NH2 (sidechain bridge or staple) [BAM-f2-R9, BAM-f2 conjugated with cell-penetrating peptide R9]", "values": [
      {"measurement": "eradication of E. coli bacteria", "value": "over 99.9%"}
    ]},
    {"substance": "Ac-(4-F-DPhe)KHFIY(4-F-β-Phe)YRSPICGS(Acp)RRRRRRRRR-NH2 (sidechain bridge or staple) [BAM-β3-R9, BAM-β3 conjugated with cell-penetrating peptide R9]", "values": [
      {"measurement": "eradication of E. coli bacteria", "value": "over 99.9%"}
    ]}
  ]
}
